Reference: patent publication US10246429B2, “Vinyl fluoride cyclopropyl fused thiazin-2-amine compounds as beta-secretase inhibitors and methods of use” (AMGEN INC., priority 2015, dated 2019)

Tests used:
Aβ 40 = assay: In vivo inhibition of beta-secretase: Aβ 40 reduction in rat CSF and brain; settings: after 4 hrs, versus vehicle;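 also: male Sprague Dawley rats dosed orally in 2% HPMC, 1% Tween80 (pH 2.2) vehicle, Aβ40 quantified by sandwich ECL-based ELISA in CSF and brain supernatants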
From the text: Several animal models, including mouse, rat, dog, and monkey, may be used to screen for inhibition of beta-secretase activity in vivo following administration of a test compound sample. […] A separate group of animals receive 2% hydroxypropyl methylcellulose, 1% Tween80 alone, containing no test compound, and serve as a vehicle-control group. At the end of the test period, animals are sacrificed and brain tissues, plasma or cerebrospinal fluid are collected. […] Homogenates are centrifuged at 355,000 g, 4° C. for 30 minutes. CSF or brain supernatants are then analyzed for the presence of Aβ by specific sandwich ELISA assays based on ECL (Electrochemiluminescence) technology. For example, rat Abeta40 is measured using biotinylated-4G8 (Signet) as a capture antibody and Fab40 (an in-house antibody specific to the C-terminal of Abeta40) as a detection antibody. […] Actual vehicles used: Oral: 2% HPMC, 1% Tween80, pH 2.2

Cathepsin D (CatD) = Cathepsin D (CatD) (Homo sapiens (Human), UniProt P07339); assay: CatD assay; type: biochemical; settings: read-out: IC50 IP (μM) CatD
BACE2 = BACE2 (Homo sapiens (Human), UniProt Q9Y5Z0); assay: In vitro enzymatic BACE2 FRET assay; type: biochemical; settings: read-out: IC50 IP (μM) BACE2 Enzyme
From the text: (§1) In Vitro Enzymatic BACE1 and BACE2 FRET (Fluorescence Resonance Energy Transfer) Assays (Enzyme Assay Data in Table 1)

BACE1 [1] = target: T1, BACE1 (Homo sapiens (Human), UniProt P56817); assay: In vitro enzymatic BACE1 FRET assay; type: biochemical; settings: read-out: IC50 IP (μM) BACE1 Enzyme
Target sequence in this assay (P56817 46-501): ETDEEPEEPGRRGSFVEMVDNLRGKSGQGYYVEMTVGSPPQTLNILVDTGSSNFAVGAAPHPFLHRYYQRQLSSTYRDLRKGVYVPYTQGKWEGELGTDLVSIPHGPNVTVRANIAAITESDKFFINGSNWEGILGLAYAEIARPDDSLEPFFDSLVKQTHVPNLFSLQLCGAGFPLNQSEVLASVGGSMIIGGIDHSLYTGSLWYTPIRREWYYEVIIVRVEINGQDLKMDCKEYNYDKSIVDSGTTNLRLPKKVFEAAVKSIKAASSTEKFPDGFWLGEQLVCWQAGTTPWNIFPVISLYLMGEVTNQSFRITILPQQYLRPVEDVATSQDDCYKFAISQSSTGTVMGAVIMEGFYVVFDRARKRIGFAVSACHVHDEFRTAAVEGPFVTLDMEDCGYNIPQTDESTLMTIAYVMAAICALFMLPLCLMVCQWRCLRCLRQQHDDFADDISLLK
From the text: as §1

BACE1 [2] = target: T1, BACE1; assay: BACE1 cell assay; type: cell-based; settings: read-out: IC50 IP (μM) BACE1 Cell
Target sequence in this assay (P56817 46-501, species assumed): as the sequence (P56817 46-501) above

Sequence of Cathepsin D (CatD) (P07339 65-412, species assumed): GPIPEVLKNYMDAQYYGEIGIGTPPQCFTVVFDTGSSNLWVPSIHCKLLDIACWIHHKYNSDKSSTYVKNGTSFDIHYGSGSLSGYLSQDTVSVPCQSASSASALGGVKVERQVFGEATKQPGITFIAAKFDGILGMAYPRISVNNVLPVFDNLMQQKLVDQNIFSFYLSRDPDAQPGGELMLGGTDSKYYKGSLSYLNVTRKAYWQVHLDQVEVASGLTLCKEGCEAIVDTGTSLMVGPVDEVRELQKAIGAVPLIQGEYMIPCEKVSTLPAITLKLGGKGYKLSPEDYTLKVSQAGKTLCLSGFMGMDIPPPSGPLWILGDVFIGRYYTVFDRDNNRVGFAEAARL
Sequence of BACE2 (Q9Y5Z0 63-518): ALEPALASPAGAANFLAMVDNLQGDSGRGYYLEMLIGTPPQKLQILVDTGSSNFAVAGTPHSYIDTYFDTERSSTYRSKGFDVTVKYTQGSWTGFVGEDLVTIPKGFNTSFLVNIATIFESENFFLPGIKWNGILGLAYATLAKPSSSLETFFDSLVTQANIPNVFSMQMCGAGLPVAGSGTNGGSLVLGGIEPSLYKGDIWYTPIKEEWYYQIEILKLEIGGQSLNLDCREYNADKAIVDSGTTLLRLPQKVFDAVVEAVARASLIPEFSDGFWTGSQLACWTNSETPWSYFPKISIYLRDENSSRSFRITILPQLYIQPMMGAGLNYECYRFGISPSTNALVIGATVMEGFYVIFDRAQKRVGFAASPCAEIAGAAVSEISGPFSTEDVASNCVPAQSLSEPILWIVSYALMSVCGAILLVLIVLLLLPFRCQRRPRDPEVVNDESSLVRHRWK

Row | IC50 (Cathepsin D (CatD)) [µM] | IC50 (BACE2) [µM] | IC50 (BACE1 [2]) [µM] | Structure (SMILES) | % Aβ 40 reduction in rat CSF at 10 mpk (Aβ 40) [%] | % Aβ 40 reduction in rat brain at 10 mpk (Aβ 40) [%] | IC50 (BACE1 [1]) [µM]
1 | 329 | 0.002 |  | CN(C)C(=O)[C@]12C[C@H]1[C@@](C)(c1cc(/C=C(\F)c3ccc(Cl)cn3)ccc1F)N=C(N)S2 [Example 102, (1S,5S,6S)-3-amino-5-(5-((Z)-2-(5-chloropyridin-2-yl)-2-fluorovinyl)-2-fluorophenyl)-N,N,5-trimethyl-2-thia-4-azabicyclo[4.1.0]hept-3-ene-1-carboxamide] | 55 | 20 | 
2 | 246 | 0.00597 | 0.00302 | C[C@]1(c2cc(/C=C(\F)c3ccc(Cl)cn3)ccc2F)N=C(N)S[C@@]2(C(=O)N3CCCC3)C[C@H]21 [Example 103, ((1S,5S,6S)-3-amino-5-(5-((Z)-2-(5-chloropyridin-2-yl)-2-fluorovinyl)-2-fluorophenyl)-5-methyl-2-thia-4-azabicyclo[4.1.0]hept-3-en-1-yl)(pyrrolidin-1-yl)methanone] | 62 | 33 | 0.0012
3 | 148 | 0.0143 |  | CN(C)C(=O)[C@]12C[C@H]1[C@@](C)(c1cc(/C=C(\F)c3ccc(C#N)cn3)ccc1F)N=C(N)S2 [Example 106, (1S,5S,6S)-3-amino-5-(5-((Z)-2-(5-cyanopyridin-2-yl)-2-fluorovinyl)-2-fluorophenyl)-N,N,5-trimethyl-2-thia-4-azabicyclo[4.1.0]hept-3-ene-1-carboxamide] | 78 | 71 | 
4 |  |  |  | C[C@]1(c2cc(/C=C(\F)c3ccc(C#N)cn3)ccc2F)N=C(N)S[C@@]2(C(=O)N3CCC(F)(F)C3)C[C@H]21 [Example 122, 6-((Z)-2-(3-((1S,5S,6S)-3-amino-1-(3,3-difluoropyrrolidine-1-carbonyl)-5-methyl-2-thia-4-azabicyclo[4.1.0]hept-3-en-5-yl)-4-fluorophenyl)-1-fluorovinyl)nicotinonitrile] | 67 | 44 | 
5 | 376 | 0.015 | 0.00161 | C[C@]1(c2cc(/C=C(\F)c3ccc(C#N)cn3)ccc2F)N=C(N)S[C@@]2(C(=O)N3CCC3)C[C@H]21 [Example 123, 6-((Z)-2-(3-((1S,5S,6S)-3-amino-1-(azetidine-1-carbonyl)-5-methyl-2-thia-4-azabicyclo[4.1.0]hept-3-en-5-yl)-4-fluorophenyl)-1-fluorovinyl)nicotinonitrile] | 81 | 73 | 0.00136
6 | 390 | 0.0299 |  | C[C@]1(c2cc(/C=C(\F)c3ccc(C#N)cn3)ccc2F)N=C(N)S[C@@]2(C(=O)N3CC[C@@H](F)C3)C[C@H]21 [Example 126, 6-((Z)-2-(3-((1S,5S,6S)-3-amino-1-((R)-3-fluoropyrrolidine-1-carbonyl)-5-methyl-2-thia-4-azabicyclo[4.1.0]hept-3-en-5-yl)-4-fluorophenyl)-1-fluorovinyl)nicotinonitrile] | 73 | 73 | 
7 | 131 | 0.0519 |  | C[C@]1(c2cc(/C=C(\F)c3ccc(C#N)cn3)ccc2F)N=C(N)S[C@@]2(C(=O)N3CC[C@H](F)C3)C[C@H]21 [Example 127, 6-((Z)-2-(3-((1S,5S,6S)-3-amino-1-((S)-3-fluoropyrrolidine-1-carbonyl)-5-methyl-2-thia-4-azabicyclo[4.1.0]hept-3-en-5-yl)-4-fluorophenyl)-1-fluorovinyl)nicotinonitrile] | 73 | 76 | 
8 | 135 | 0.396 |  | C#CCOc1cnc(/C(F)=C/c2ccc(F)c([C@@]3(C)N=C(N)S[C@@]4(C(=O)NC)C[C@H]43)c2)cn1 [Example 151, (1S,5S,6S)-3-amino-5-(2-fluoro-5-((Z)-2-fluoro-2-(5-(prop-2-yn-1-yloxy)pyrazin-2-yl)vinyl)phenyl)-N,5-dimethyl-2-thia-4-azabicyclo[4.1.0]hept-3-ene-1-carboxamide] | 64 | 45 | 
9 |  |  | 0.0007 | C#CCOc1cnc(/C(F)=C/c2ccc(F)c([C@@]3(C)N=C(N)S[C@@]4(C(=O)N5CCOCC5)C[C@H]43)c2)cn1 [Example 292, ((1S,5S,6S)-3-amino-5-(2-fluoro-5-((Z)-2-fluoro-2-(5-(prop-2-yn-1-yloxy)pyrazin-2-yl)vinyl)phenyl)-5-methyl-2-thia-4-azabicyclo[4.1.0]hept-3-en-1-yl)(morpholino)methanone] | 70 | 75 | 
10 |  |  |  | C[C@]1(c2cc(/C=C(\F)c3ccc(C#N)cn3)ccc2F)N=C(N)S[C@@]2(C(=O)N3CCO[C@@H]4C[C@@H]43)C[C@H]21 [Example 312, 6-((Z)-2-(3-((1S,5S,6S)-3-amino-1-((1R,6S)-2-oxa-5-azabicyclo[4.1.0]heptane-5-carbonyl)-5-methyl-2-thia-4-azabicyclo[4.1.0]hept-3-en-5-yl)-4-fluorophenyl)-1-fluorovinyl)nicotinonitrile] | 66 | 56 | 
11 | 349 | 0.365 | 0.104 | CNC(=O)[C@]12C[C@H]1[C@@](C)(c1cc(/C=C(\F)c3cnc(C#CCO)cn3)ccc1F)N=C(N)S2 [Example 362, (1S,5S,6S)-3-amino-5-(2-fluoro-5-((Z)-2-fluoro-2-(5-(3-hydroxyprop-1-yn-1-yl)pyrazin-2-yl)vinyl)phenyl)-N,5-dimethyl-2-thia-4-azabicyclo[4.1.0]hept-3-ene-1-carboxamide] |  |  | 0.004

Row | Structure (SMILES) | IC50 (Cathepsin D (CatD)) [µM] | IC50 (BACE2) [µM] | IC50 (BACE1 [2]) [µM] | % Aβ 40 reduction in rat CSF at 10 mpk (Aβ 40) [%] | % Aβ 40 reduction in rat brain at 10 mpk (Aβ 40) [%] | IC50 (BACE1 [1]) [µM]
12 | CCCC#Cc1ccc(/C(F)=C/c2ccc(F)c([C@@]3(C)N=C(N)S[C@@]4(C(=O)NC)C[C@H]43)c2)nc1 [Example 361, (1S,5S,6S)-3-amino-5-(2-fluoro-5-((Z)-2-fluoro-2-(5-(pent-1-yn-1-yl)pyridin-2-yl)vinyl)phenyl)-N,5-dimethyl-2-thia-4-azabicyclo[4.1.0]hept-3-ene-1-carboxamide] | 34 | 0.49 | 1.41 |  |  | 0.058
13 | CNC(=O)[C@]12C[C@H]1[C@@](C)(c1cc(/C=C(\F)c3cnc(C#CCF)cn3)ccc1F)N=C(N)S2 [Example 363, (1S,5S,6S)-3-amino-5-(2-fluoro-5-((Z)-2-fluoro-2-(5-(3-fluoroprop-1-yn-1-yl)pyrazin-2-yl)vinyl)phenyl)-N,5-dimethyl-2-thia-4-azabicyclo[4.1.0]hept-3-ene-1-carboxamide] | > 400 | 0.152 | 1.34 |  |  | 0.01
14 | CNC(=O)[C@]12C[C@H]1[C@@](C)(c1cc(/C=C(\F)c3ccc(OC(F)(F)F)cn3)ccc1F)N=C(N)S2 [Example 364, (1S,5S,6S)-3-amino-5-(2-fluoro-5-((Z)-2-fluoro-2-(5-(trifluoromethoxy)pyridin-2-yl)vinyl)phenyl)-N,5-dimethyl-2-thia-4-azabicyclo[4.1.0]hept-3-ene-1-carboxamide] | 256 | 0.285 | 0.025 |  |  | 0.008
